Data on one compound can be found in publication PMC7865522, “Analyzing Kinase Similarity in Small Molecule and Protein Structural Space to Explore the Limits of Multi-Target Screening” (Molecules, 2021).

Several values for one entry are separate records, joined by “and”; a condition that tells them apart may be missing. Equal values may be shown once. A value given as a limit tells only on which side of the number the result lay.

Assay type in all cases: biochemical
For experiment [1], the target named is T1, BRAF (Homo sapiens, UniProt P15056).
T1 construct: purchased DiscoverX (KINOMEscan service); host or cells: E. coli BL21-derived host (T7 phage) or HEK-293
Kind of experiment: Eurofins in vitro kinase inhibition assay. The conditions noted are these: 20 µM; Table 3; read-out: % inhib. at 20 µM, BRAF (Eurofins), printed as symbol. In short, it runs like this:
(§1)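 20 µM cpd; kinase + ATP + substrate analog, phosphorylation read (EGFR, ErbB2, BRAF). PI3K: PIP2→PIP3 conversion, HTRF readout of biotin-PIP3 displacement from PIP3-binding complex. % inhibition vs control, mean (SD).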

In experiment [2] the target is T2, ErbB2 (Homo sapiens, UniProt P04626).
T2 construct: purchased DiscoverX (KINOMEscan service); host or cells: E. coli BL21-derived host (T7 phage) or HEK-293
T2 sequence (P04626 23-1255): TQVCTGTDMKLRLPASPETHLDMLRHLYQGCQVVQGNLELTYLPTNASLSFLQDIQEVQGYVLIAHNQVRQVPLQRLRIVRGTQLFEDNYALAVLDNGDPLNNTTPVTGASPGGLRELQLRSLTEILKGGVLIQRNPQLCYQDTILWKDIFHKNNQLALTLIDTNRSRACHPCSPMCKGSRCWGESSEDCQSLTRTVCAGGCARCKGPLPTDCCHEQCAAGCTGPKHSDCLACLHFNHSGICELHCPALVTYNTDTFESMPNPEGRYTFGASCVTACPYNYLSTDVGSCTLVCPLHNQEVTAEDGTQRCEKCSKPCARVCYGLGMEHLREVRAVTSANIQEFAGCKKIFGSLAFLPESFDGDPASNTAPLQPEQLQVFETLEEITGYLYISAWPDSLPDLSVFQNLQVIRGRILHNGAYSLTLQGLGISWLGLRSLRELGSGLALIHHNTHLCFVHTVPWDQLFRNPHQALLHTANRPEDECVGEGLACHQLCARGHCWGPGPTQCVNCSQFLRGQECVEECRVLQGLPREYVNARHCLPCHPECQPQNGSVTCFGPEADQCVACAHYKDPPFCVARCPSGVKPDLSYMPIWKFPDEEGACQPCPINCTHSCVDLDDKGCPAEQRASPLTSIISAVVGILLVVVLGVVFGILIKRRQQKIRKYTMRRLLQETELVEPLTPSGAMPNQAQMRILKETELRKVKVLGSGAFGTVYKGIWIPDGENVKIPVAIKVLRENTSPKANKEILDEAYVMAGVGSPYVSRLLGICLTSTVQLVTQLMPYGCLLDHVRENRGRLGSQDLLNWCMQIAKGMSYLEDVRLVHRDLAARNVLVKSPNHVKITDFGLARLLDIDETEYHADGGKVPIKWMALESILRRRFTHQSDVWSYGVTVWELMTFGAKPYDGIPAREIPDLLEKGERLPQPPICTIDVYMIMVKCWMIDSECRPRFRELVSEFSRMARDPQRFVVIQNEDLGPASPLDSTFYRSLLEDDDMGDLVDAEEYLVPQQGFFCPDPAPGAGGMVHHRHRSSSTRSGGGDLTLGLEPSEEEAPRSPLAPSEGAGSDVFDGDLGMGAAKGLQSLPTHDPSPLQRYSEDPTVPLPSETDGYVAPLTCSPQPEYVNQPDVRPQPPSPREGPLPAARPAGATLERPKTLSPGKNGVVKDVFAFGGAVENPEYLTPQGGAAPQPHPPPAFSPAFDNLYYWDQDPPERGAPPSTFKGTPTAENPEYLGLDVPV
The experiment in a line: Eurofins in vitro kinase inhibition assay. In short, it runs like this:
as §1

The target of experiment [3] is T3, EGFR-L858R (Homo sapiens, UniProt P00533, L858R).
T3 construct: purchased Carna Biosciences lot13CBS-0537B
The experiment in a line: HTRF KinEASE-TK IC50 determination (Rauh Lab). The conditions noted are these: ATP at Km (9 µM); read-out: IC50, EGFR L858R mutant. As for the experimental part: (§2) IC 50 determinations for EGFR, its mutants and ErbB2-insYVMA (Carna Biosciences, lot13CBS-0005K for EGFR-wt; Carna, lot13CBS-0537B for EGFR-L858R; Carna, lot12CBS-0765B for EGFR-L858R/T790M; and ProQinase, lot1525-0000-1/003 for ErbB2-insYVMA) were performed with the HTRF KinEASE-TK assay from Cisbio according to the manufacturer’s instructions. Briefly, the amount of kinase in each reaction well was set to 0.60 ng EGFR-wt (0.67 nM), 0.10 ng EGFR-L858R (0.11 nM), 0.07 ng EGFR-T790M/L858R (0.08 nM), or 0.01 ng ErbB2-insYVMA (0.01 nM). An artificial substrate peptide (TK-substrate from Cisbio) was phosphorylated by EGFR or ErbB2. After completion of the reaction (reaction times: 25 min for EGFR-wt, 15 min for L858R, 20 min for L858R/T790M, and 40 min for ErbB2-insYVMA), the reaction was stopped by addition of buffer containing EDTA as well as an anti-phosphotyrosine antibody labeled with europium cryptate and streptavidin labeled with the fluorophore XL665. FRET between europium cryptate and XL665 was measured after an additional hour of incubation to quantify the phosphorylation of the substrate peptide. […] Kinase and inhibitor were preincubated for 30 min before the reaction was started by addition of ATP and substrate peptide. An EnVision multimode plate reader (Perkin Elmer) was used to measure the fluorescence of the samples at 620 nm (Eu ^3+ -labeled antibody) and 665 nm (XL665-labeled streptavidin) 50 µs after excitation at 320 nm. The quotient of both intensities for reactions made with eight different inhibitor concentrations was then analyzed using the Quattro Software Suite for IC 50 -determination. Each reaction was performed in duplicate, and at least three independent determinations of each IC 50 were made.
In general terms: TR-FRET usually uses a lanthanide donor and a delayed reading to cut background.

The target in experiment [4] is T4, EGFR-L858R/T790M (Homo sapiens, UniProt P00533, L858R/T790M).
T4 construct: purchased Carna Biosciences lot12CBS-0765B
T4 sequence (P00533 25-1210 T790M/L858R): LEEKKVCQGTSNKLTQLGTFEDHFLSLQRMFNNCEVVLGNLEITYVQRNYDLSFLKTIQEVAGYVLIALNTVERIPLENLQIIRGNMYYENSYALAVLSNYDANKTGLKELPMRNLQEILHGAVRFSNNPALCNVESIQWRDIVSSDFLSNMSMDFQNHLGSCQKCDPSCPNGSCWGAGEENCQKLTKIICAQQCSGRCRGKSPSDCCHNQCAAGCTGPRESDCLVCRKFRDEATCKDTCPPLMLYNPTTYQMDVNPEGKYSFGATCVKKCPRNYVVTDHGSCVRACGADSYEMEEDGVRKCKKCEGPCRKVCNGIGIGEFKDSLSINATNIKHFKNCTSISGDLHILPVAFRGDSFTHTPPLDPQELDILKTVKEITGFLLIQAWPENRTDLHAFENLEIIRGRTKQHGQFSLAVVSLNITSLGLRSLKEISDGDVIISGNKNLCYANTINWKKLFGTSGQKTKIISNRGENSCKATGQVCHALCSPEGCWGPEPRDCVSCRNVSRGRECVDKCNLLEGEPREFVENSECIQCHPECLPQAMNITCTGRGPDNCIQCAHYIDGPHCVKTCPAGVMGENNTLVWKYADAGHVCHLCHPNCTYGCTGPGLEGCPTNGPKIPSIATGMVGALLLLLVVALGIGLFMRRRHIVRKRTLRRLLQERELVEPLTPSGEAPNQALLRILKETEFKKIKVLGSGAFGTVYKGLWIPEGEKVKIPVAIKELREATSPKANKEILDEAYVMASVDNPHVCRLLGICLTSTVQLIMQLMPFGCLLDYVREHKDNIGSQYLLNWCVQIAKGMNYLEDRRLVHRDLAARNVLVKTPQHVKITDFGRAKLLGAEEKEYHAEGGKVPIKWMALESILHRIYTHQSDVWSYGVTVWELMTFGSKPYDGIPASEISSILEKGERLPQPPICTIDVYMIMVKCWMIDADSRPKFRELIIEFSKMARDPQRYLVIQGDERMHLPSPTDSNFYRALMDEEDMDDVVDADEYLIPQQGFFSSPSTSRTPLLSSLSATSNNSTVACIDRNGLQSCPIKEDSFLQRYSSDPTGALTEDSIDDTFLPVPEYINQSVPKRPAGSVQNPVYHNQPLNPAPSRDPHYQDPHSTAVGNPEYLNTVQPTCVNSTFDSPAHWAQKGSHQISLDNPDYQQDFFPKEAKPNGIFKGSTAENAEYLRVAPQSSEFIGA
The experiment in a line: HTRF KinEASE-TK IC50 determination (Rauh Lab). The following applies: ATP at Km (4 µM); read-out: IC50, EGFR L858R/T790M double mutant. As for the experimental part: as §2

The target of experiment [5] is T5, EGFR-wt (Homo sapiens, UniProt P00533).
T5 construct: purchased Carna Biosciences lot13CBS-0005K
The experiment in a line: HTRF KinEASE-TK IC50 determination (Rauh Lab). The conditions noted are these: ATP at Km (9.5 µM), racemate tested, read-out: IC50 ± s.d., EGFR. As for the experimental part: as §2

The target of experiment [6] is T6, ErbB2-insYVMA (Homo sapiens, UniProt P04626, INS775YVMA).
T6 construct: purchased ProQinase lot1525-0000-1/003
T6 sequence (P04626 with tags, fused parts or gaps INS775YVMA limits assumed): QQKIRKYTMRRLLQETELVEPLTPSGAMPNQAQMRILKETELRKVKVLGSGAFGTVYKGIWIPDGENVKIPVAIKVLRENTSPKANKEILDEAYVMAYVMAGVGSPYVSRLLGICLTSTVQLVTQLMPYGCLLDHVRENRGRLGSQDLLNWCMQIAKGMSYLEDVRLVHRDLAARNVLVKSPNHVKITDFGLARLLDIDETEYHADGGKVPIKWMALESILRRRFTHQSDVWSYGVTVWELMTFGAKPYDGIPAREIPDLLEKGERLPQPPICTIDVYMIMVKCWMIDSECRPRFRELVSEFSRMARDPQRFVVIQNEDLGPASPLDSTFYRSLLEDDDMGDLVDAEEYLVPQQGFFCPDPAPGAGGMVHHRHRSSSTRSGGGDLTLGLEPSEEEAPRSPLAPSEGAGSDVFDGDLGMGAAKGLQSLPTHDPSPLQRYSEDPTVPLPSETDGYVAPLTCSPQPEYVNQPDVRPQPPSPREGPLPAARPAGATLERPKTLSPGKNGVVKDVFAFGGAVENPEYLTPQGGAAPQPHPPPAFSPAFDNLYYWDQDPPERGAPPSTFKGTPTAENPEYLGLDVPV
The experiment in a line: HTRF KinEASE-TK IC50 determination (Rauh Lab). The conditions noted are these: ATP at Km (6 µM); racemate tested; read-out: IC50 ± s.d., ErbB2insYVMA. The procedure: as §2

Experiment [7] concerns the target PI3K (Homo sapiens, UniProt P42336). The experiment in a line: Eurofins in vitro kinase inhibition assay (HTRF, PIP3 displacement). Further details: purchased Eurofins Cerep (contract assay). The conditions noted are these: compound 20 µM; mean (SD); above 50% significant, 25-50% weak. In a few lines:
as §1

Sequence of PI3K (P42336 whole entry): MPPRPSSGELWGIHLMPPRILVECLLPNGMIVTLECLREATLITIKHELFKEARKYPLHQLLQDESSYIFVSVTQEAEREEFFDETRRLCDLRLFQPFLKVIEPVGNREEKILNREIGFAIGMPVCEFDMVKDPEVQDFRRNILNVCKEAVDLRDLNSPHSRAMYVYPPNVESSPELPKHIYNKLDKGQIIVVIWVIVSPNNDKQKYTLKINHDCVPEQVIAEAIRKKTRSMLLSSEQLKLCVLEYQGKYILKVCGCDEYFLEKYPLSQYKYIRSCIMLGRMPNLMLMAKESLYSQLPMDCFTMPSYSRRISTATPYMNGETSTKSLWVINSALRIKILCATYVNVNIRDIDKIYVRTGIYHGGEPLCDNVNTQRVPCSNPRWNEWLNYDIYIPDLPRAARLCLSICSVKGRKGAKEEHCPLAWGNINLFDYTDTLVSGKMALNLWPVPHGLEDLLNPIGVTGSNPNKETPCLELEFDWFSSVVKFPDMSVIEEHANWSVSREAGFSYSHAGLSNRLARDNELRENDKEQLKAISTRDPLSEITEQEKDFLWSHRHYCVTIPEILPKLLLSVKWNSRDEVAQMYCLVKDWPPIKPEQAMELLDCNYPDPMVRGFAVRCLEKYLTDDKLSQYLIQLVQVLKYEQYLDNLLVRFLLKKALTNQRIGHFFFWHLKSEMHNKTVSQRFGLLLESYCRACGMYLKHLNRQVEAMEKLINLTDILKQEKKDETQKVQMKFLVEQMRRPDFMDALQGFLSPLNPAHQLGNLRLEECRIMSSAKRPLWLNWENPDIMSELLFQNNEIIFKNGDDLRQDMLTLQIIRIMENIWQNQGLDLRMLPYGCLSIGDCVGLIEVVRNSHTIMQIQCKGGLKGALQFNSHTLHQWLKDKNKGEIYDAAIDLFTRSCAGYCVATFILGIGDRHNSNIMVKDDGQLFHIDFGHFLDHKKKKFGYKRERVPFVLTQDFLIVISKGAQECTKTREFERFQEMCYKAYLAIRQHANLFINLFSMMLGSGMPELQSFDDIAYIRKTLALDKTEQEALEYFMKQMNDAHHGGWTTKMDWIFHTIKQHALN
Sequence of PI3K (P27986 whole entry partner): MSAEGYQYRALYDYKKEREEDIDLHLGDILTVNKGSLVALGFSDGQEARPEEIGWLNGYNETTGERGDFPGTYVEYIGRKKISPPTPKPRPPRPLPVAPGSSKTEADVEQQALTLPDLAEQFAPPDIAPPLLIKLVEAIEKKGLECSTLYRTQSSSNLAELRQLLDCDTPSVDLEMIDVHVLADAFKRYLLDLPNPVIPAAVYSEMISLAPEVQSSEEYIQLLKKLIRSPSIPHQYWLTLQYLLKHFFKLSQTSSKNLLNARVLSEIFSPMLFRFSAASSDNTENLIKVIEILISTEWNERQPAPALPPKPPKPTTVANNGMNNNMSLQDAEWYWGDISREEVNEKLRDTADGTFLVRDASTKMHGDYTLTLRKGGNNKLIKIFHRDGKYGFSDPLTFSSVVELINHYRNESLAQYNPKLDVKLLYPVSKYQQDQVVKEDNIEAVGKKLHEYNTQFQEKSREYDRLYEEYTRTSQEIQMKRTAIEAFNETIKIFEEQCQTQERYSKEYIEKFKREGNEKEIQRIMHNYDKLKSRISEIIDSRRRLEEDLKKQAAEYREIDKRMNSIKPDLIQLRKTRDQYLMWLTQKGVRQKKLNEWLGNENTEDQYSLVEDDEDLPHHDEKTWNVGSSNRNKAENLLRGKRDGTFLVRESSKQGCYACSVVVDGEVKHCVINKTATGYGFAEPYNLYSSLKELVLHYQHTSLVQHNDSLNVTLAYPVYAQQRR

With `COC(=O)Cc1ccc(Oc2ncnc3sc4c(c23)CC[C@@H](C)C4)cc1` (racemic) [DS39984], the inhibition at 20 µM was less than 50% in experiment [1] and less than 50% in experiment [2] (20 µM, Table 3, read-out: % inhib. at 20 µM, ErbB2 (Eurofins), printed as symbol). Also, the “% inhibition of control activity, ErbB2 (Eurofins)” value in experiment [2] (compound 20 µM, mean (SD), above 50% significant, 25-50% weak) was -1.3 (1.8) % inhibition. Moreover, the IC50 in experiment [3] was 2350 ± 397 nM; in experiment [4], greater than 10000 nM; in experiment [5], 324 ± 50 nM; in experiment [6], < 324 nM and 220 nM. Moreover, in experiment [7], the “% inhibition of control activity, PI3K (Eurofins)” value is listed as -6.7 (2.3) % inhibition.
